Results on one compound are retold here after patent US20100099732A1, “MEDICAMENTS USEFUL AS POTASSIUM CHANNEL MODULATORS” (NeuroSearch A/S, priority 2007, published 2010).

In the assay the target is T1, BK channels (Homo sapiens, UniProt Q12791).
T1 construct: expressed in transfected cells; host or cells: Xenopus laevis oocytes
The assay is described as follows: BK channel opening activity, two-electrode voltage clamp in Xenopus laevis oocytes. Format: cell-based. The method, then:
In this example the BK channel opening activity of a phenylcarbamoyl-methyl-indole derivative for use according to the invention, i.e. 5-Chloro-3-[(3-chloro-phenylcarbamoyl)-methyl]-1H-indole-2-carboxylic acid (herein designated Compound A), is determined using BK channels heterologously expressed in Xenopus laevis oocytes.
The electrical current through the BK channel is measured conventional two-electrode voltage clamp. BK current is activated by repeated step protocols. In brief, this protocol goes from a resting membrane potential of −40 mV lasting for 5 s to a depolarised step to +20 mV lasting for 1 s. The protocol was repeated continuously.
Having reached stable current level, Compound A (10 μM), was added. A marked increase in the current activated by depolarisation could be observed. The BK current activity returned to baseline after approximately 30-60 seconds of wash. In summary BK current was increased by 92±23% in the presence of 10 μM of compound A (n=3, SD value).
For orientation: In two-electrode clamp one electrode senses voltage and the other passes current.

T1 sequence (Q12791 whole entry): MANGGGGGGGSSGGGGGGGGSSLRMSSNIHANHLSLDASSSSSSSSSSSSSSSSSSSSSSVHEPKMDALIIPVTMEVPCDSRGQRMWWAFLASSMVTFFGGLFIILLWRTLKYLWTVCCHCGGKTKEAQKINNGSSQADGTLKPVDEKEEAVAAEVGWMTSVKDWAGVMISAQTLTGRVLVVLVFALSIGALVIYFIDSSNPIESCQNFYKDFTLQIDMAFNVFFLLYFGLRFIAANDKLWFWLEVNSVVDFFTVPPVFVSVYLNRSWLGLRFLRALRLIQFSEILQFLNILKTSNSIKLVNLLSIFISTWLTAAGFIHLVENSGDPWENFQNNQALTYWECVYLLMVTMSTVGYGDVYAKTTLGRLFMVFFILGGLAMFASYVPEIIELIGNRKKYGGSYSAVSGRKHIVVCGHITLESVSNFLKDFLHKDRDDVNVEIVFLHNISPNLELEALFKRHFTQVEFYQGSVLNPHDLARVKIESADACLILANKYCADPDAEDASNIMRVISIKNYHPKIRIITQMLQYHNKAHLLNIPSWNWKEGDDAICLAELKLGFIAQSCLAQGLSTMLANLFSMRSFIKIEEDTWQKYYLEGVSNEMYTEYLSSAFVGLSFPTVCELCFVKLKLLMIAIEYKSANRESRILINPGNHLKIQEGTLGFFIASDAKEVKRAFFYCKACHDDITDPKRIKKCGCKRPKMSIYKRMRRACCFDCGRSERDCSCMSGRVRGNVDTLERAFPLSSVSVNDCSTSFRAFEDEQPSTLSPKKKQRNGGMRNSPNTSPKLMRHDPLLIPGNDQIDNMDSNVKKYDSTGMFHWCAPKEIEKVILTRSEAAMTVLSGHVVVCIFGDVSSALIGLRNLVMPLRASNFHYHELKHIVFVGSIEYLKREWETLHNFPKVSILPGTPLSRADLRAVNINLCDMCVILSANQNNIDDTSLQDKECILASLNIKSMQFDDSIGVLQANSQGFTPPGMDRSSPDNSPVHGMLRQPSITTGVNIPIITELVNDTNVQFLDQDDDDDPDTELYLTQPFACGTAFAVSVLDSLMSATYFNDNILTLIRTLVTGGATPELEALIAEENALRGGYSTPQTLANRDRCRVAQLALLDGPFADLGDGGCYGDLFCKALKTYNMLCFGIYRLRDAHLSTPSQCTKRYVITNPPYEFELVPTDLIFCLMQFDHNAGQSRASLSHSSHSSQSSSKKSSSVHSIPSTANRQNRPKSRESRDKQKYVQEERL

For the setting “10 μM compound, BK channels heterologously expressed in Xenopus laevis oocytes, depolarising step to +20 mV, n=3, SD value”, `O=C(Cc1c(C(=O)O)[nH]c2ccc(Cl)cc12)Nc1cccc(Cl)c1` [Compound A, 5-Chloro-3-[(3-chloro-phenylcarbamoyl)-methyl]-1H-indole-2-carboxylic acid] displayed a BK current increase of 92±23%. Further, the “BK current activity return to baseline after wash” value (wash after 10 μM compound, Xenopus laevis oocytes) was in the range of 30 to 60 s.
